The text below walks through data of patent US20090170862A1, “USE OF C-KIT INHIBITORS FOR THE TREATMENT OF MYELOMA” (priority 2001, published 2009).

For data set [1], the system named is MM.1S cells. The data set is described as follows: Transwell cell migration assay (modified Boyden chamber). It counts as cell-based, human. How it is done:
MM.1S cells are exposed to PTK787 at concentrations 0, 1, 5 and 10 μM for 4 h and then added to the upper chamber of a transwell system. To the lower wells are added either VEGF (□, 10 ng/ml) or CD40 (Δ, 10 ng/ml), and cells are allowed to migrate to the lower chamber over a 5 h period. A lower chamber without any VEGF or CD40 (∘) serves as a control. Migrated cells are counted on a Beckman Coulter counter, and a migration index is obtained as described in Example 2, below. Experiments are performed in triplicate, and standard deviation bars are shown.
The migration assay is performed in a modified Boyden chamber system; using a 24 well plate with 8 μm pore size inserts. Prior to the assay, the upper and lower chambers are pre-coated with fibronectin (10 μg/ml). MM.1S cells are starved in 2% RPMI media for 6 hours prior to assay, then treated with drug or DMSO control for 4 h. MM cells (2×10^6 cells/ml) are then placed into the upper chamber of the transwell system. To the lower chamber is added RPMI (1% FBS), 0 or 10 ng/ml of VEGF165, or an activating MoAb to CD40 (10 ng/ml). The plates are then incubated at 37° C. for 6 h, and then cells in the lower chamber are harvested. The number of live migrated cells is gated and measured using a Beckman Coulter counter. A migration index is calculated to compare migration of cells relative to control. The migration index is defined herein as the percentage of live migrated cells in the sample (with or without drug, and ±VEGF), divided by the percentage of live migrated cells in the control (no drug, no VEGF).

The next data set has as its system MM cell lines. The data set is described as follows: Proliferation of MM cell lines and patient tumor cells ([3H]-thymidine uptake). It counts as cell-based, human. How it is done:
FIGS. 2 to 4. Dose-related effect of PTK787 on proliferation of MM cell lines and patient tumor cells. MM.1S, MM.1R, RPMI 8226, patient PCL cells, patient MM cells and HUVE cells were incubated in the presence of 0 (□), 1 (▪), 5 ( ? ), 10 ( ? ) and 20 ( ? ) μM of PTK787. In addition, HUVE cells are also exposed to 0.01 ( ? ), and 0.1 ( ? ) μM of drug. Proliferation is measured as a percentage of 3H-dT uptake relative to standard. The experiments are performed in triplicate, and standard deviation bars are shown.
RPMI 8226 and U266 human MM cell lines are obtained from the American Type Culture Collection (ATCC) of Rockville, Md. Patient derived MM cells are purified from patient BM samples, as described by Y. T. Tai, G. Teoh, Y. Shima, et al in J. Immunol. Methods 235:11, 2000. All human MM cell lines are cultured in RPMI-1640 media (Sigma Chemical, St. Louis, Mo.), containing 10% fetal bovine serum (FBS), 2 mmol/L L-glutamine (L-glut, GIBCO, Grand Island, N.Y.), 100 U/mL penicillin and […] streptomycin (P/S, GIBCO). MM patient cells are ≧95% CD38+, CD45RA−. Bone marrow stromal cells (BMSCs) are prepared from aspirates of MM patients as well as healthy donors as described by D. Gupta, S. Treon, Y. Shima, et al in Leukemia, 2001 and S. Gartner and H. S. Kaplan in Proc. Natl. Acad. Sci. USA 77:4756, 1980. […]

Data set [2] relates to MM.1S cells. The data set can be described thus: Proliferation of MM cells in a modified Boyden chamber transwell co-culture system with BMSCs. It counts as cell-based, human. The note with it: 5 μM; transwell co-culture with BMSCs without contact; 48 h; p<0.001. How it is done:
Proliferation is measured in a modified Boyden chamber transwell system, using 24-well plates with a […] pore size inserts (Costar). BMSCs (4×10^4 cells/well) are plated in the lower chamber, starved, and incubated in drug as described above. MM cells (20×10^4 cells/ml) are then placed in the upper chamber (insert), and [^3H]-thymidine uptake in the individual chambers is measured at 48 h as described above.
MM.1 S cells are placed in the upper chamber of a transwell co-culture system in order to preclude direct contact between MM cells and BMSCs, but nonetheless allow for diffusion of humoral factors. Despite the lack of contact between the two cell types, uptake of [^3H]-dT by MM.1S cells incubated with BMSCs is increased by 2.2-fold (p<0.0001) at 48 h. […] When PTK787 (5 μM) is used in this co-culture system, it reduces proliferation of MM.1S cells by 62% (p<0.001).

Data set [3] concerns MM.1S cells. The data set can be described thus: Survival / cell death of MM.1S cells in the presence of dexamethasone and IL-6. It counts as cell-based, human. The note with it: for inhibition of survival of MM.1S cells: 24 h, dexamethasone 0.1 or 1 μM, PTK787 5 μM, p<0.001. As for the experimental part:
MM.1S cells are incubated for 24 h in 1% RPMI, in the presence or absence of dexamethasone (0.1 or 1 μM), PTK787 (5 μM), IL-6 (20 and 100 ng/ml) and VEGF (50 ng/ml).

The test system of a further data set is BMSCs. The data set is described as follows: Viability of BMSCs (trypan blue exclusion and MTS assay). It counts as cell-based, human. The note with it: with PTK787 in the co-culture system.
Data set [4] has as its system MM.1S cells. The data set is described as follows: Proliferation of MM.1S cells in an adhesion co-culture system with BMSCs. It counts as cell-based, human. The note with it: 5 μM, compared to controls, p<0.0001. As for the experimental part:
(§1) Co-culturing of MM.1S cells or patient PCL cells with BMSCs increases growth of tumor cells by 1.8 to 2.8-fold, compared to the combination of BMSCs and MM cells alone. Addition of PTK787 (5 μM) to this co-culture system decreases proliferation of both MM.1S cells and patient PCL cells by 75% (p<0.0001), when compared to controls. These effects are observed whether the BMSCs are derived from a normal donor or patient BM.

The subject of a further data set is patient PCL cells. The data set can be described thus: Proliferation of patient PCL cells in an adhesion co-culture system with BMSCs. It counts as cell-based, human. The note with it: 5 μM, compared to controls, p<0.0001. How it is done:
as §1

Data set [5] concerns MM.1S cells. The note with it: for inhibition of proliferation of MM.1S cells: 24 h, dexamethasone 0.1 or 1 μM, PTK787 5 μM; for inhibition of proliferation of MM.1S cells / inhibition of MM.1S proliferation with IL-6: p<0.001; for inhibition of MM.1S proliferation without IL-6: comparison arm.
Protocol: MM cells are first starved for 12 h in RPMI-1640 media containing 2% fetal bovine serum, and then plated into 96-well microtiter plates (Costar, Cambridge, Mass.), in the presence of drug or DMSO control. Experiments are also performed in the presence or absence of VEGF165 (R and D Systems). Proliferation is measured by the incorporation of [^3H]-thymidine (NEN Products, Boston, Mass.). Specifically, cells are pulsed with [^3H]-thymidine (0.5 μCi/well) for the last 6 h of 48 h cultures, harvested onto glass filters with an automatic cell harvester (Cambridge Technology, Cambridge, Mass.), and counted using a LKB Betaplate scintillation counter (Wallac, Gaithersburg, Md.). Measurement of cell viability is performed colorimetrically by MTS assay, utilizing the CellTiter96 AQueous One Solution Reagent (Promega, Madison, Wis.). Cells are exposed to the MTS for the last 2 h of 48 h cultures, and absorbance is measured using an ELISA plate reader (Molecular Devices Corp., Sunnyvale, Calif.) at OD of 570 nm.
For data set [6], the system named is human carcinomas (A431, Ls174T, HT-29, PC-3). The note with it: Cancer Res. 60: 2178, 2000, cited from earlier work.
For data set [7], the system named is A431, Ls174T, HT-29, PC-3 tumor cells. The note with it: cited from earlier work.
Another data set has as its system IL-6. The data set can be described thus: IL-6 levels in supernatants of MM.1S/BMSC co-culture (ELISA). The note with it: MM.1S/BMSC co-culture supernatants, 48 h.

Regarding `Clc1ccc(Nc2nnc(Cc3ccncc3)c3ccccc23)cc1` [PTK787], the “VEGF-induced migration of MM.1S cells” value in the data set on MM.1S cells [1] (1 μM PTK787, VEGF 10 ng/ml, p=0.002) is reported as “reduced to baseline levels”. The “baseline and VEGF-induced migration of MM.1S cells” value in the data set with MM.1S cells [1] (5 and 10 μM PTK787) is “further reduces”. Also, the “migration of MM.1S cells induced by CD40” value in the data set on MM.1S cells [1] (activating MoAb to CD40 10 ng/ml) is listed as “does not significantly inhibit”. In addition, the “proliferation of MM.1S, Dex-resistant MM.1R, RPMI, patient PCL and patient MM cells” value with MM cell lines (0-20 μM PTK787, 3H-dT uptake) is on record as “decreases, in a dose dependent manner”. In the data set on MM cell lines (PTK787 (1 to 5 μM), presence or absence of VEGF), the “proliferation in MM cell lines with or without VEGF” value is “abrogates proliferation both in the presence or absence of VEGF”. Further, in the data set with MM.1S cells [2], the “reduction of proliferation of MM.1S cells” value stood at 62%. The “inhibition of survival of MM.1S cells” value in the data set with MM.1S cells [3] was 46%. Also, in the data set on MM.1S cells [3] (PTK787 alone, second value of '54% vs. 65%'), the “cell death of MM.1S cells without IL-6” value is recorded as 65%. In addition, the “cell death of MM.1S cells with IL-6” value in the data set with MM.1S cells [3] (PTK787 plus IL-6, first value of '54% vs. 65%', p<0.01) is 54%. The “viability of BMSCs” value in the data set with BMSCs came out at 95%. Moreover, the “decrease of proliferation of MM.1S cells” value with MM.1S cells [4] was 75%. In addition, the “decrease of proliferation of patient PCL cells” value in the data set with patient PCL cells is recorded as 75%. Further, in the data set with MM.1S cells [5], the “inhibition of proliferation of MM.1S cells” value came out at 35%, the “inhibition of MM.1S proliferation with IL-6” value amounted to 64.7% and the “inhibition of MM.1S proliferation without IL-6” value came out at 39.3%. The “growth of human carcinomas transplanted orthotopically into mice” value in data set [6] (A431, Ls174T, HT-29, PC-3) is “inhibits the growth”. Moreover, in data set [6], the “vessel density in the tumor tissues” value is reported as “does reduce vessel density”. Besides, in [7], the “direct effect on tumor cells” value was “does not have a direct effect”. Moreover, in the data set with IL-6, the “decrease of IL-6 concentrations” value is 70%.
As for `C[C@@H]1C[C@H]2[C@@H]3CCC4=CC(=O)C=C[C@]4(C)[C@@]3(F)[C@@H](O)C[C@]2(C)[C@@]1(O)C(=O)CO` [Dexamethasone, dexamethasone, reference compound], the “inhibition of survival of MM.1S cells” value in the data set on MM.1S cells [3] is reported as 83%. Moreover, in the data set on MM.1S cells [5], the “inhibition of proliferation of MM.1S cells” value turned out to be 58%, the “inhibition of MM.1S proliferation with IL-6” value is listed as 16% and the “inhibition of MM.1S proliferation without IL-6” value came to 70.5%.
